Where a name gives a salt, the structure may show the parent alone. Each block holds one compound with its values, some of them ahead of it.
Key:
ER [1] = target: T1, ER (Homo sapiens, UniProt P03372); assay: ER degradation by in-cell western (ICW), MCF7 cells; format: cell-based; parameters: endogenous in cells; host or cells: MCF-7; conditions: for Dmax: MCF7, read-out: MCF7 Dmax (%); for DC50: MCF7 cells, ER in-cell western, 16 hours
Method: (§1) ERa degradative activity of compounds can be assessed in MCF-7 and T47D Cells. MCF-7 and T47D cell are seeded and are subsequently treated with the compounds at certain concentrations (e.g., 0.02 to 300 nM). DMSO can be used as vehicle control. Cells are fixed and are blocked with Intercept (PBS) Blocking Buffer (e.g., Li—COR, Odyssey Blocking Buffer), and are stained with ER (e.g., 1:500, Cell signaling) primary antibody for overnight at cold room. Secondary Antibody (e.g., IRDye 800CW Goat anti-Rabbit IgG) and CellTag 700 Stain are added in Intercept (PBS) Blocking Buffer. Finally, cell plate is placed in incubator to dry. Image and signal were captured on Odyssey@DLx Imaging System.
(§2) In-cell western blot analysis. Cells are seeded in multi-well plates (e.g., at 40,000 or 10,000 cells/well). Diluted compounds at certain concentration are added (final 0.5% DMSO) and cells are incubated for certain period of time (e.g., 16 hours). Formaldehyde (e.g., PBS:FA=9:1) is added and followed by washing with PBS. The cells are blocked with Licor blocking buffer (Li-Cor). The relative ER percentage in treated cells were obtained by comparing the values of treated wells to those in untreated and DMSO-treated wells as 100%.
(§3) In-cell western blot analysis. a. seed cells in black-sided/clear bottom 96- or 384-well plates at 40,000 or 10,000 cells/well, overnight; b. add diluted compounds (final 0.5% DMSO), 16 hours. […] RT 2 h, gentle shaking. Negative control: cells plus secondary antibodies (no primary antibodies); e. wash×4 with PBS +0.05-0.1% Tween 20, gentel shaking; f. anti-rabbit-680 and anti-mouse-800 (both 1:1000 in LiCor block +0.05% Tween20, RT 1 h, gentle shaking, no light. LI-COR: 0.2% to reduce background; g. wash×4 with PBS+0.05% Tween 20, gental shaking; h. add 100 μL or 25 μL of PBS to each well and read on CLX plate reader. The relative ER percentage in treated cells were obtained by comparing the values of treated wells to those in untreated and DMSO-treated wells as 100%.

CRBN/DDB1 = CRBN/DDB1 (Homo sapiens, UniProt Q96SW2); assay: biochemical
[2] = target: wild-type human CRBN protein (Homo sapiens, UniProt Q96SW2); assay: biochemical
IKZF2 = target: T2, IKZF2 (Homo sapiens, UniProt Q96SW2+Q9UKS7); assay: IKZF2 HiBiT degradation assay (Jurkat-IKZF2-HiBiT); format: cell-based
T2 construct: host or cells: Jurkat-IKZF2-HiBiT
Method: Degradation of IKZF2 protein was determined by IKZF2 HiBiT assay using the Jurkat-IKZF2-HiBiT (Promega) cell line. […] Compounds were serially diluted in culture medium, and 20 μl of the diluted compounds were added to the appropriate wells of the plate. After the addition of compounds, the cells were incubated at 37° C. in an atmosphere of 5% CO2 for 24 hours. At the end of treatment, 40 ul of Nano-Glo HiBiT Lytic Detection Reagent (Promega) was added to each well, and then the plates were incubated at room temperature for 10-20 minutes. The luminescent signal was measured using a CALRIOstar plate reader (BMG Labtech). The readings were normalized to the DMSO-treated cells and the IC50 was calculated by nonlinear regression (four parameters sigmoid fitted with variable slope, least squares fit, and no constraint) analysis using the GraphPad Prism 8 software.

ER [3] = target: T1, ER; assay: ER degradation by in-cell western (ICW), T47D cells; format: cell-based; parameters: endogenous in cells; host or cells: T47D; conditions: for DC50: T47D cells, ER in-cell western, 16 hours; for Dmax: T47D, read-out: T47D Dmax (%)
Method: as §1, §2, §3

Sequence of wild-type human CRBN protein (Q96SW2 whole entry): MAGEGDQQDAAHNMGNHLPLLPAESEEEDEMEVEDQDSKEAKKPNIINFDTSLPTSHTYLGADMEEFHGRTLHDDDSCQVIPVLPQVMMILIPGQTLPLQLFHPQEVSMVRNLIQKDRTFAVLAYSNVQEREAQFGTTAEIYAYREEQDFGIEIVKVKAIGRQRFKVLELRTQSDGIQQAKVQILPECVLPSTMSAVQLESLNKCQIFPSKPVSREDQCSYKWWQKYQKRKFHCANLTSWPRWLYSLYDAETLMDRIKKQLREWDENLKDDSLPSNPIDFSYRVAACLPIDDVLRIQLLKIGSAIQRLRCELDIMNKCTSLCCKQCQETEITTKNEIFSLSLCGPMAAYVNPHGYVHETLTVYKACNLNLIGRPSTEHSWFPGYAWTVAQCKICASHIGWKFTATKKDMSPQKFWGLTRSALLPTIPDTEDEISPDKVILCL
Sequence of CRBN/DDB1 (Q96SW2 whole entry): as above
Sequence of CRBN/DDB1 (Q16531 whole entry, further chain): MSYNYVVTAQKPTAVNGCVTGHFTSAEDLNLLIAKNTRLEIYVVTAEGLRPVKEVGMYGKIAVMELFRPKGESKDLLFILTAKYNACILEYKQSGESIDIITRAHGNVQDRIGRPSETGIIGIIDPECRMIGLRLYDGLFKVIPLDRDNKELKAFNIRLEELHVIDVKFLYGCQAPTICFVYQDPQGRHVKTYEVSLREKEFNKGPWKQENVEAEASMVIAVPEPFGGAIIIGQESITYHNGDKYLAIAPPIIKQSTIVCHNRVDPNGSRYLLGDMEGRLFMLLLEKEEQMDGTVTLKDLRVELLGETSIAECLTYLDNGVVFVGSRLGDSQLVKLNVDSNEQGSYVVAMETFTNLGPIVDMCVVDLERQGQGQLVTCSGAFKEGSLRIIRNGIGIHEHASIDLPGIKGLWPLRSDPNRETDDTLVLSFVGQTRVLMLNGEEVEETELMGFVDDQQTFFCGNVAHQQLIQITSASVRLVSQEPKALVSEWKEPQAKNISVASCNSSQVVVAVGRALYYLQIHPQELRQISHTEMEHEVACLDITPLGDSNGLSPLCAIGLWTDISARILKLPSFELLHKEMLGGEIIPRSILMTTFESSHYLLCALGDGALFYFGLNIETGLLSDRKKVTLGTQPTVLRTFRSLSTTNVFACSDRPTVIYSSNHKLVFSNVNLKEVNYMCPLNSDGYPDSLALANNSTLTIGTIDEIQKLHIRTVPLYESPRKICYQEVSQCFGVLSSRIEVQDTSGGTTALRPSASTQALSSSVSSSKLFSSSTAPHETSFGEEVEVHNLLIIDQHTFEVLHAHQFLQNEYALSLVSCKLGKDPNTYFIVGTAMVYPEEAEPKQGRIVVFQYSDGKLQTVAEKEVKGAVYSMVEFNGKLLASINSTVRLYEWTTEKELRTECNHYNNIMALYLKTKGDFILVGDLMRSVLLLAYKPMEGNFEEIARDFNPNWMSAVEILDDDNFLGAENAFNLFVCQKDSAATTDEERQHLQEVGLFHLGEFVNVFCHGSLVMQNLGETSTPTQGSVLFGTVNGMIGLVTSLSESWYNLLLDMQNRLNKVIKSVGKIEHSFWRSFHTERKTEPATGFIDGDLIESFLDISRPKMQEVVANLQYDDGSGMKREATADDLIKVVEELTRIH
T1 sequence (P03372 whole entry): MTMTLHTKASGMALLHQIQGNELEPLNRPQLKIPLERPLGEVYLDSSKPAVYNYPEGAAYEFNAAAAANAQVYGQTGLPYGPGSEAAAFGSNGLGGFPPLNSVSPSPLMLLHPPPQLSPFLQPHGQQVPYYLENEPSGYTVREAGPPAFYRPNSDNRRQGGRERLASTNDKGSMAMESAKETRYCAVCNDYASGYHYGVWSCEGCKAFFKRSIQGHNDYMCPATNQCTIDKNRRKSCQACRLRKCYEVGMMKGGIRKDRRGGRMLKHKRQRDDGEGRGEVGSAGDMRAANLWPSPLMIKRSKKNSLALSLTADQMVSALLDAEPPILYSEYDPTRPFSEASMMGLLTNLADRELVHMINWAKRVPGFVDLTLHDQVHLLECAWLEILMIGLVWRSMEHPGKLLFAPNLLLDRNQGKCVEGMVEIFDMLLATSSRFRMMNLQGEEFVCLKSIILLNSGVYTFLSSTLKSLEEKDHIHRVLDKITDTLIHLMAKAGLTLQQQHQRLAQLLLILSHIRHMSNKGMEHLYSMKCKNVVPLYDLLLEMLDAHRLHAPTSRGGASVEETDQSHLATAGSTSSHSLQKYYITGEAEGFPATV
T2 sequence (Q9UKS7 whole entry): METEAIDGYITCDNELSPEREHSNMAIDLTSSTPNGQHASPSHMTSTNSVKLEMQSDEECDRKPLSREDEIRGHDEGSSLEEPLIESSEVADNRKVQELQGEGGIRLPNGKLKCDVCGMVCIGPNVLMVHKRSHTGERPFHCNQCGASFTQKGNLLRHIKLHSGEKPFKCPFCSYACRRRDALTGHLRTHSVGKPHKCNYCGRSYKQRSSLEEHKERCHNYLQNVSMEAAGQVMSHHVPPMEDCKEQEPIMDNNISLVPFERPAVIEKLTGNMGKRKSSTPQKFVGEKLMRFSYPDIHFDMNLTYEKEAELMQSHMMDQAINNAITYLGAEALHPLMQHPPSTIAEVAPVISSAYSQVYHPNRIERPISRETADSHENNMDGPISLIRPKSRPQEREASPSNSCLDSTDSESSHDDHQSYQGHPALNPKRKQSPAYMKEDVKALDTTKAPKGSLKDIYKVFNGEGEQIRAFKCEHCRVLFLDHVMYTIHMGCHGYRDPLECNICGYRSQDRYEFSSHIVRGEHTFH
T2 sequence (Q96SW2 whole entry): as the sequence (Q96SW2 whole entry) above
T2 sequence (Q16531 2-1140 partner limits assumed): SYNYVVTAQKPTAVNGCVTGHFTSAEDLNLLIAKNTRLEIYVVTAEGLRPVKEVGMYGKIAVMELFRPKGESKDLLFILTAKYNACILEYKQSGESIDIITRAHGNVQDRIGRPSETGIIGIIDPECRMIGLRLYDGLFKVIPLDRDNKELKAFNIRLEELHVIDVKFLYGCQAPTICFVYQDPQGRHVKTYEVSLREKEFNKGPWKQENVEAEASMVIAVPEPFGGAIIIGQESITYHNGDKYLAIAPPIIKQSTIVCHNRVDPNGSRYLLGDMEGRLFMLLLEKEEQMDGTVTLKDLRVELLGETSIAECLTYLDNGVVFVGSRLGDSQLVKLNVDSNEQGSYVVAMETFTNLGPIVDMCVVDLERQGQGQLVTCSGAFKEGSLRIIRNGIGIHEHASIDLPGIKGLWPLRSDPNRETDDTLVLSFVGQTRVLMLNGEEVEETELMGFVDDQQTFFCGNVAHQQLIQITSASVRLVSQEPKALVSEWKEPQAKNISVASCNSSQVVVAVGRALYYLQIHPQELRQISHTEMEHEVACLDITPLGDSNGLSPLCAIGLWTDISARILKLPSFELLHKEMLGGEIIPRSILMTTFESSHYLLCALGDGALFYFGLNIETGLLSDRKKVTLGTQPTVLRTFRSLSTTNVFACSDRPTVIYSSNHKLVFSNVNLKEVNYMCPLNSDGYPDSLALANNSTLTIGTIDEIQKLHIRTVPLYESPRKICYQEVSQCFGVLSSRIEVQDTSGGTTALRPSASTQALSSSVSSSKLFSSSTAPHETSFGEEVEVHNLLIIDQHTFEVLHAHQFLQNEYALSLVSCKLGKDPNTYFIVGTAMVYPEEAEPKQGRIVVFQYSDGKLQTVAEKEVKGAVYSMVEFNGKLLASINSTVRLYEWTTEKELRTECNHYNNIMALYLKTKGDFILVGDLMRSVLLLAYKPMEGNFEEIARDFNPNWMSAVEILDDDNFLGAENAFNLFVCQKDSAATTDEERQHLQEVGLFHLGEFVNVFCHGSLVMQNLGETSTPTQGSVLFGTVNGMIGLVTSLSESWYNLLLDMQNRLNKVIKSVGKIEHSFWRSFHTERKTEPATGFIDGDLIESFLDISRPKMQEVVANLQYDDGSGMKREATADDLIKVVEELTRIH

Compound: O=C1CC[C@H](N2Cc3cc4c(cc3C2=O)OC[C@@H]2CN(CC3CC5(CCN(c6ccc([C@@H]7c8ccc(O)cc8OC[C@@H]7c7ccccc7)cc6)CC5)C3)CCN42)C(=O)N1 [CHR-A59, (S)-3-((S)-3-((7-(4-((3S,4R)-7-hydroxy-3-phenylchroman-4-yl)phenyl)-7-azaspiro[3.5]nonan-2-yl)methyl)-8-oxo-1,2,3,4,4a,5,8,10-octahydro-9H-pyrazino[1′,2′:4,5][1,4]oxazino[2,3-f]isoindol-9-yl)piperidine-2,6-dione]
Dmax (ER [1]): 50 to 75%
DC50 (ER [1]): 1 to 10 nM

Compound: O=C1CC[C@@H](N2Cc3cc4c(cc3C2=O)OC[C@H]2CN(CC3CCC5(CC3)CN(c3ccc([C@H]6c7ccc(O)cc7OC[C@H]6c6ccccc6)cc3)C5)CCN42)C(=O)N1 [CHR-A118, (R)-3-((R)-3-((2-(4-((3R,4S)-7-hydroxy-3-phenylchroman-4-yl)phenyl)-2-azaspiro[3.5]nonan-7-yl)methyl)-8-oxo-1,2,3,4,4a,5,8,10-octahydro-9H-pyrazino[1′,2′:4,5][1,4]oxazino[2,3-f]isoindol-9-yl)piperidine-2,6-dione]
DC50 (ER [1]): 1 to 10 nM

Compound: O=C1CC[C@H](NC(=O)c2cc3c(cc2F)N2CCNC[C@H]2CO3)C(=O)N1 [Compound A1, (S)—N—((S)-2,6-dioxopiperidin-3-yl)-9-fluoro-1,2,3,4,4a,5-hexahydrobenzo[b]pyrazino[1,2-d][1,4]oxazine-8-carboxamide hydrochloride]
IC50 (CRBN/DDB1): 21800 nM

Compound: CN1CCN2c3cc(F)c(C(=O)N[C@H]4CCC(=O)NC4=O)cc3OC[C@@H]2C1 [Compound A2, (S)—N—((S)-2,6-dioxopiperidin-3-yl)-9-fluoro-3-methyl-1,2,3,4,4a,5-hexahydrobenzo[b]pyrazino[1,2-d][1,4]oxazine-8-carboxamide]
IC50 (CRBN/DDB1): 3640 nM

Compound: CC(C)(C)OC(=O)N1CCN2c3cc4c(cc3OC[C@@H]2C1)C(=O)N(C1CCC(=O)NC1=O)C4 (stereo partly drawn) [Compound A3, tert-butyl (4aS)-9-(2,6-dioxopiperidin-3-yl)-8-oxo-1,2,4a,5,9,10-hexahydro-8H-pyrazino[1′,2′:4,5][1,4]oxazino[2,3-f]isoindole-3(4H)-carboxylate]
IC50 (CRBN/DDB1): 330 nM

Compound: O=C1CC[C@H](N2Cc3cc4c(cc3C2=O)OC[C@@H]2CNCCN42)C(=O)N1 [Compound A8, (S)-3-((S)-8-oxo-3,4,4a,5-tetrahydro-1H-pyrazino [1′,2′:4,5][1,4]oxazino[2,3-f]isoindol-9(2H,8H,10H)-yl)piperidine-2,6-dione hydrochloride]
IC50 (CRBN/DDB1): 430 nM

Compound: O=C1CCC(N2Cc3cc4c(cc3C2=O)OC[C@@H]2CN(Cc3ccc(F)cc3)CCN42)C(=O)N1 (stereo partly drawn) [Compound C19, 3-((S)-3-(4-fluorobenzyl)-8-oxo-1,2,3,4,4a,5,8,10-octahydro-9H-pyrazino[1′,2′:4,5][1,4]oxazino[2,3-f]isoindol-9-yl)piperidine-2,6-dione]
IC50 [2]: 330 nM
DC50 (IKZF2; read-out: IKZF2 degradation DC50, Jurkat-IKZF2-HiBiT cells, 24 hours): > 2000 nM
Dmax (IKZF2; read-out: IKZF2 degradation Dmax (%)): 0%

Compound: C[C@@H]1Cc2c(ccc3[nH]ncc23)[C@@H](c2ccc(N3CCC4(CC3)CC(CN3CCN5c6cc7c(cc6OC[C@@H]5C3)C(=O)N([C@@H]3CCC(=O)NC3=O)C7)C4)cn2)N1CC1(F)CC1 [IDZ-A12, (R)-3-((S)-3-((7-(6-((6S,8R)-7-((1-fluorocyclopropyl)methyl)-8-methyl-6,7,8,9-tetrahydro-3H-pyrazolo[4,3-f]isoquinolin-6-yl)pyridin-3-yl)-7-azaspiro[3.5]nonan-2-yl)methyl)-8-oxo-1,2,3,4,4a,5,8,10-octahydro-9H-pyrazino[1′,2′:4,5][1,4]oxazino[2,3-f]isoindol-9-yl)piperidine-2,6-dione]
DC50 (ER [3]): < 1 nM
Dmax (ER [3]): > 75%
Dmax (ER [1]): > 75%
DC50 (ER [1]): < 1 nM

Compound: C[C@@H]1Cc2c([nH]c3ccccc23)[C@@H](c2cnc(N3CCC4(CC3)CC(CN3CCN5c6ccc(C(=O)N[C@H]7CCC(=O)NC7=O)nc6OC[C@H]5C3)CO4)nc2)N1CC(F)F (stereo partly drawn) [IND-A63, (4aR)-3-((8-(5-((1R,3R)-2-(2,2-difluoroethyl)-3-methyl-2,3,4,9-tetrahydro-1H-pyrido[3,4-b]indol-1-yl)pyrimidin-2-yl)-1-oxa-8-azaspiro[4.5]decan-3-yl)methyl)-N—((S)-2,6-dioxopiperidin-3-yl)-1,2,3,4,4a,5-hexahydropyrazino[1,2-d]pyrido[2,3-b][1,4]oxazine-8-carboxamide]
DC50 (ER [3]): 1 to 10 nM
Dmax (ER [3]): 50 to 75%
Dmax (ER [1]): 50 to 75%
DC50 (ER [1]): 1 to 10 nM

Further lines, results first:

IC50 [2]: 25000 nM
Compound: O=C1CC[C@H](NC(=O)c2ccc3c(c2)OC[C@@H]2CNCCN32)C(=O)N1 [Compound B23, (S)—N—((S)-2,6-dioxopiperidin-3-yl)-1,2,3,4,4a,5-hexahydrobenzo[b]pyrazino[1,2-d][1,4]oxazine-8-carboxamide]

IC50 [2]: 3400 nM
Compound: CN(C(=O)c1ccc2c(c1)OC[C@@H]1CNCCN21)C1CCC(=O)NC1=O (stereo partly drawn) [Compound B24, (4aS)—N-(2,6-dioxopiperidin-3-yl)-N-methyl-1,2,3,4,4a,5-hexahydrobenzo[b]pyrazino[1,2-d][1,4]oxazine-8-carboxamide]

IC50 [2]: 470 nM
Compound: CCN1CCN2c3ccc4c(c3OC[C@H]2C1)CN([C@H]1CCC(=O)NC1=O)C4=O [Compound C8, (S)-3-((R)-7-ethyl-1-oxo-1,3,5,5a,6,7,8,9-octahydro-2H-pyrazino[1′,2′:4,5][1,4]oxazino[2,3-e]isoindol-2-yl)piperidine-2,6-dione]

IC50 [2]: 180 nM
Compound: CC(=O)N1CCN2c3ccc4c(c3OC[C@H]2C1)CN([C@H]1CCC(=O)NC1=O)C4=O [Compound C9, (S)-3-((R)-7-acetyl-1-oxo-1,3,5,5a,6,7,8,9-octahydro-2H-pyrazino[1′,2′:4,5][1,4]oxazino[2,3-e]isoindol-2-yl)piperidine-2,6-dione]

IC50 [2]: 200 nM
Compound: CC(=O)N1CCN2c3ccc4c(c3OC[C@@H]2C1)CN([C@H]1CCC(=O)NC1=O)C4=O [Compound C10, (S)-3-((S)-7-acetyl-1-oxo-1,3,5,5a,6,7,8,9-octahydro-2H-pyrazino[1′,2′:4,5][1,4]oxazino[2,3-e]isoindol-2-yl)piperidine-2,6-dione]

IC50 [2]: 90 nM
Compound: O=C1CC[C@H](N2Cc3c(ccc4c3OC[C@@H]3CN(Cc5ccc(C(F)F)cc5)CCN43)C2=O)C(=O)N1 [Compound C11, (S)-3-((S)-7-(4-(difluoromethyl)benzyl)-1-oxo-1,3,5,5a,6,7,8,9-octahydro-2H-pyrazino[1′,2′:4,5][1,4]oxazino[2,3-e]isoindol-2-yl)piperidine-2,6-dione]

IC50 [2]: 240 nM
Compound: O=C1CC[C@H](N2Cc3c(ccc4c3OC[C@@H]3CN(Cc5ccc(F)c(F)c5)CCN43)C2=O)C(=O)N1 [Compound C12, (S)-3-((S)-7-(3,4-difluorobenzyl)-1-oxo-1,3,5,5a,6,7,8,9-octahydro-2H-pyrazino[1′,2′:4,5][1,4]oxazino[2,3-e]isoindol-2-yl)piperidine-2,6-dione]

IC50 [2]: 90 nM
Compound: O=C1CC[C@H](N2Cc3c(ccc4c3OC[C@@H]3CN(Cc5ccc(F)cc5Cl)CCN43)C2=O)C(=O)N1 [Compound C13, (S)-3-((S)-7-(2-chloro-4-fluorobenzyl)-1-oxo-1,3,5,5a,6,7,8,9-octahydro-2H-pyrazino[1′,2′:4,5][1,4]oxazino[2,3-e]isoindol-2-yl)piperidine-2,6-dione]

— patent US20260265271A1, “Cereblon Ligands and Uses Thereof” (REGENTS OF THE UNIVERSITY OF MICHIGAN, priority 2022, published 2026)
